Experimental findings from ChEMBL document CHEMBL5137127, “Astramalabaricosides A-T, Highly Oxygenated Malabaricane Triterpenoids with Migratory Inhibitory Activity from Astragalus membranaceus var. mongholicus” (J Nat Prod, 2022) are described below.

Active and inactive are the calls of the source. The calls are words filed in the database; no cut-off is given here.

The experiment deals with HepG2. Put plainly: Antimigratory activity against human HepG2 cells assessed as inhibition of cell migration at 100 uM measured upto 24 hrs by inverted microscopy based scratch wound healing assay. It counts as functional.

In the case of `CC(=O)N[C@H]1[C@H](O[C@H]2[C@H](O[C@H]3[C@H](O[C@H]4CC[C@]5(C)[C@H]6C[C@@H](O)[C@@H]([C@](C)(O)CC/C=C(\C)C[C@@H]7OC(=O)O[C@H]7C(C)(C)O)[C@]6(C)CC[C@H]5C4(C)C)O[C@H](CO[C@@H]4OC[C@@H](O)[C@H](O)[C@H]4O)[C@@H](O)[C@@H]3O)O[C@@H](C)[C@H](O)[C@H]2O)O[C@H](CO)[C@@H](O)[C@@H]1O`, the outcome was Active. With `CC(=O)N[C@H]1[C@H](O[C@H]2[C@H](O[C@H]3[C@H](O[C@H]4CC[C@]5(C)[C@H]6C[C@@H](O)[C@@H]([C@](C)(O)CC/C=C(\C)C[C@H](O)[C@H](O)C(C)(C)O)[C@]6(C)CC[C@H]5C4(C)C)O[C@H](CO[C@@H]4OC[C@@H](O)[C@H](O)[C@H]4O)[C@@H](O)[C@@H]3O)O[C@@H](C)[C@H](O)[C@H]2O)O[C@H](CO)[C@@H](O)[C@@H]1O[C@@H]1OC[C@H](O)[C@H](O)[C@H]1O` the entry was “Active”; with `C/C(=C\CC[C@@](C)(O)[C@@H]1[C@H](O)C[C@H]2[C@@]1(C)CC[C@H]1C(C)(C)[C@@H](O[C@@H]3O[C@H](CO[C@@H]4OC[C@@H](O)[C@H](O)[C@H]4O)[C@@H](O)[C@H](O)[C@H]3O[C@@H]3O[C@@H](C)[C@H](O)[C@@H](O)[C@H]3O)CC[C@]21C)C[C@@H]1OC(=O)O[C@H]1[C@](C)(O)CO[C@@H]1O[C@H](CO)[C@@H](O)[C@H](O)[C@H]1O`, “Active”; with `C/C(=C\CC[C@@](C)(O)[C@@H]1[C@H](O)C[C@H]2[C@@]1(C)CC[C@H]1C(C)(C)[C@@H](O[C@@H]3O[C@H](CO[C@@H]4OC[C@@H](O)[C@H](O)[C@H]4O)[C@@H](O)[C@H](O)[C@H]3O[C@@H]3O[C@@H](C)[C@H](O)[C@@H](O)[C@H]3O)CC[C@]21C)C[C@H](O)[C@@H](O)[C@@](C)(O)CO[C@@H]1O[C@H](CO)[C@@H](O)[C@H](O)[C@H]1O`, “Active”.

In the case of `CC(=O)N[C@H]1[C@H](O[C@H]2[C@H](O[C@H]3[C@H](O[C@H]4CC[C@]5(C)[C@H]6C[C@@H](O)[C@@H]([C@](C)(O)CC/C=C(\C)C[C@@H]7OC(=O)O[C@H]7[C@](C)(O)CO)[C@]6(C)CC[C@H]5C4(C)C)O[C@H](CO[C@@H]4OC[C@@H](O)[C@H](O)[C@H]4O)[C@@H](O)[C@@H]3O)O[C@@H](C)[C@H](O)[C@H]2O)O[C@H](CO)[C@@H](O)[C@@H]1O[C@@H]1OC[C@H](O)[C@H](O)[C@H]1O`, the result was Active.

Turning to `C/C(=C\CC[C@@](C)(O)[C@@H]1[C@H](O)C[C@H]2[C@@]1(C)CC[C@H]1C(C)(C)[C@@H](O[C@@H]3O[C@H](CO[C@@H]4OC[C@@H](O)[C@H](O)[C@H]4O)[C@@H](O)[C@H](O)[C@H]3O[C@@H]3O[C@@H](C)[C@H](O)[C@@H](O)[C@H]3O)CC[C@]21C)C[C@@H]1OC(=O)O[C@H]1[C@](C)(O)CO`, the result was Active.

Take `CC(=O)N[C@H]1[C@H](O[C@H]2[C@H](O[C@H]3[C@H](O[C@H]4CC[C@]5(C)[C@H]6C[C@@H](O)[C@@H]([C@](C)(O)CC/C=C(\C)C[C@@H]7OC(=O)O[C@H]7[C@](C)(O)CO[C@@H]7O[C@H](CO)[C@@H](O)[C@H](O)[C@H]7O)[C@]6(C)CC[C@H]5C4(C)C)O[C@H](CO[C@@H]4OC[C@@H](O)[C@H](O)[C@H]4O)[C@@H](O)[C@@H]3O)O[C@@H](C)[C@H](O)[C@H]2O)O[C@H](CO)[C@@H](O)[C@@H]1O`: the outcome was Active. With `CC(=O)N[C@H]1[C@H](O[C@H]2[C@H](O[C@H]3[C@H](O[C@H]4CC[C@]5(C)[C@H]6C[C@@H](O)[C@@H]([C@](C)(O)CC/C=C(\C)C[C@@H]7OC(=O)O[C@H]7[C@](C)(O)CO)[C@]6(C)CC[C@H]5C4(C)C)O[C@H](CO[C@@H]4OC[C@@H](O)[C@H](O)[C@H]4O)[C@@H](O)[C@@H]3O)O[C@@H](C)[C@H](O)[C@H]2O)O[C@H](CO)[C@@H](O)[C@@H]1O` the entry was “Active”; with `CC(=O)N[C@H]1[C@H](O[C@H]2[C@H](O[C@H]3[C@H](O[C@H]4CC[C@]5(C)[C@H]6C[C@@H](O)[C@@H]([C@](C)(O)CC/C=C(\C)C[C@H](O)[C@@H](O)[C@@](C)(O)CO)[C@]6(C)CC[C@H]5C4(C)C)O[C@H](CO[C@@H]4OC[C@@H](O)[C@H](O)[C@H]4O)[C@@H](O)[C@@H]3O)O[C@@H](C)[C@H](O)[C@H]2O)O[C@H](CO)[C@@H](O)[C@@H]1O[C@@H]1OC[C@H](O)[C@H](O)[C@H]1O`, “Active”. Turning to `CC(=O)N[C@H]1[C@H](O[C@H]2[C@H](O[C@H]3[C@H](O[C@H]4CC[C@]5(C)[C@H]6C[C@@H](O)[C@@H]([C@](C)(O)CC/C=C(\C)C[C@@H]7OC(=O)O[C@H]7[C@](C)(O)CO)[C@]6(C)CC[C@H]5C4(C)C)O[C@H](CO[C@@H]4OC[C@@H](O)[C@H](O)[C@H]4O)[C@@H](O)[C@@H]3OC(C)=O)O[C@@H](C)[C@H](O)[C@H]2O)O[C@H](CO)[C@@H](O)[C@@H]1O`, the result was Active. As for `CC(=O)N[C@H]1[C@H](O[C@H]2[C@H](O[C@H]3[C@H](O[C@H]4CC[C@]5(C)[C@H]6C[C@@H](O)[C@@H]([C@](C)(O)CC/C=C(\C)C[C@H](O)[C@@H](O)[C@@](C)(O)CO[C@@H]7O[C@H](CO)[C@@H](O)[C@H](O)[C@H]7O)[C@]6(C)CC[C@H]5C4(C)C)O[C@H](CO[C@@H]4OC[C@@H](O)[C@H](O)[C@H]4O)[C@@H](O)[C@@H]3O)O[C@@H](C)[C@H](O)[C@H]2O)O[C@H](CO)[C@@H](O)[C@@H]1O`, the result was Active.

As to `CC(=O)N[C@H]1[C@H](O[C@H]2[C@H](O[C@H]3[C@H](O[C@H]4CC[C@]5(C)[C@H]6C[C@@H](O)[C@@H]([C@](C)(O)CC/C=C(\C)C[C@H](O)[C@@H](O)[C@@](C)(O)CO)[C@]6(C)CC[C@H]5C4(C)C)O[C@H](CO[C@@H]4OC[C@@H](O)[C@H](O)[C@H]4O)[C@@H](O)[C@@H]3O)O[C@@H](C)[C@H](O)[C@H]2O)O[C@H](CO)[C@@H](O)[C@@H]1O`, the outcome was Active. Regarding `CC(=O)N[C@H]1[C@H](O[C@H]2[C@H](O[C@H]3[C@H](O[C@H]4CC[C@]5(C)[C@H]6C[C@@H](O)[C@@H]([C@](C)(O)CC/C=C(\C)C[C@H](O)[C@H](O)C(C)(C)O)[C@]6(C)CC[C@H]5C4(C)C)O[C@H](CO[C@@H]4OC[C@@H](O)[C@H](O)[C@H]4O)[C@@H](O)[C@@H]3O)O[C@@H](C)[C@H](O)[C@H]2O)O[C@H](CO)[C@@H](O)[C@@H]1O`, the outcome was Active. With `C/C(=C\CC[C@@](C)(O)[C@@H]1[C@H](O)C[C@H]2[C@@]1(C)CC[C@H]1C(C)(C)[C@@H](O[C@@H]3O[C@H](CO[C@@H]4OC[C@@H](O)[C@H](O)[C@H]4O)[C@@H](O)[C@H](O)[C@H]3O[C@@H]3O[C@@H](C)[C@H](O)[C@@H](O)[C@H]3O)CC[C@]21C)C[C@H](O)[C@@H](O)[C@@](C)(O)CO` the entry was “Active”; with `CC(=O)N[C@H]1[C@H](O[C@H]2[C@H](O[C@H]3[C@H](O[C@H]4CC[C@]5(C)[C@H]6C[C@@H](O)[C@@H]([C@](C)(O)CC/C=C(\C)C[C@@H]7OC(=O)O[C@H]7[C@](C)(O)CO)[C@]6(C)CC[C@H]5C4(C)C)O[C@H](CO[C@@H]4OC[C@@H](O)[C@H](O)[C@H]4O)[C@@H](OC(C)=O)[C@@H]3O)O[C@@H](C)[C@H](O)[C@H]2O)O[C@H](CO)[C@@H](O)[C@@H]1O`, “Active”; with `CC(=O)N[C@H]1[C@H](O[C@H]2[C@H](O[C@H]3[C@H](O[C@H]4CC[C@]5(C)[C@H]6C[C@@H](O)[C@@H]([C@](C)(O)CC/C=C(\C)C[C@H](O)[C@H](O)C(C)(C)O)[C@]6(C)CC[C@H]5C4(C)C)O[C@H](CO)[C@@H](O)[C@@H]3O)O[C@@H](C)[C@H](O)[C@H]2O)O[C@H](CO)[C@@H](O)[C@@H]1O`, “Active”.
